How the values were obtained:
[1] = target: T1, Human Prostaglandin-H Synthase-2 (hPGH-2), COX-2 (Homo sapiens, UniProt P35354); assay: Human prostaglandin-H synthase-2 (hPGH-2) inhibition assay in transfected COS-7 cells (PGE-2); format: cell-based; details: COS-7 cells transfected with hPGH-2, arachidonic acid 20 μM, PGE-2 readout
T1 construct: expressed in transfected cells; host or cells: COS-7
T1 sequence (P35354 18-604): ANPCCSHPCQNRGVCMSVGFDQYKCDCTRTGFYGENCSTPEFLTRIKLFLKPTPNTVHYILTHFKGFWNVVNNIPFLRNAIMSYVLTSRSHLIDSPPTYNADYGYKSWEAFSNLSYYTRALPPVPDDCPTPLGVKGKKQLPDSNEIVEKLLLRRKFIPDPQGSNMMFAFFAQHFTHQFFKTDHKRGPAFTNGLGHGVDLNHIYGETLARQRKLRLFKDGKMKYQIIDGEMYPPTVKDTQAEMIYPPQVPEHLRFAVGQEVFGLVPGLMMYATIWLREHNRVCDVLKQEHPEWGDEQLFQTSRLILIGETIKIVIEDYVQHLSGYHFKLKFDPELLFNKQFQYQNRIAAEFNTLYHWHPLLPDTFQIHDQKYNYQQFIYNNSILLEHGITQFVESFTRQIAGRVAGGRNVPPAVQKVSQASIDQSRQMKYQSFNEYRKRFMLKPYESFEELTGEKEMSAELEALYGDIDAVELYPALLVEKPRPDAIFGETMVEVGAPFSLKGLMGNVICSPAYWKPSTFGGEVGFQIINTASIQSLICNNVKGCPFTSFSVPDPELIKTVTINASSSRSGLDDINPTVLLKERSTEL
Experimental: The cells were grown in 10% fetal bovine serum (FBS) in DMEM medium (Invitrogen Life Technologies) at 37° C. in an atmosphere with 5% CO2 and 90% moisture. 20 000 cells/well were plated in 96 well plate (Falcon). The cells in a negative control were cultured only in medium (NC), while the secretion of TNF-α in a positive control was stimulated by the addition of 500 pg/mL lipopolysaccharide (LPS, E. coli serotype 0111:B4, Sigma) (PC). The effect of the tested substances on TNF-α secretion was assessed after their addition to cell cultures stimulated with LPS (TS). […] The percentage inhibition of TNF-α production was calculated by the following equation: % inhibition=[1-(TS-NC)/(PC-NC)]×100. IC50 value was defined as the concentration of the substance at which 50% of TNF-α production was inhibited. […] After 30 minutes supernatants were removed and prostoglandin E2 (PGE-2) was measured with a PGE-2 assay kit (Cayman) following the manufacturer's instructions. No production of PGE-2 was detected in negative controls. % inhibition was calculated by the following equation: % inhibition=(1-sample PGE-2 concentration/positive control PGE-2 concentration)*100.

[2] = system: eosinophil number in BAL fluid; assay: Model of lung eosinophilia in mice; format: in vivo, Balb/C mice; details: OVA-sensitised mice, i.n. or i.p. dosing, compared to the vehicle treated control group
Experimental: Male Balb/C mice with a body weight of 20-25 g were randomly divided into groups, and sensitized by an i.p. injection of ovalbumin (OVA, Sigma) on day zero and day fourteen. On the twentieth day, the mice were subjected to a challenge test by i.n. (intranasal) application of OVA (positive control or test group) or PBS (negative control). 48 hours after i.n. application of OVA, the animals were anaesthetized and the lungs were rinsed with 1 mL of PBS. The cells were separated on a Cytospin 3 cytocentrifuge (Shandon). The cells were stained in Diff-Quick (Dade) and the percentage of eosinophils was determined by differential counting of at least 100 cells. The compounds were administered daily i.n. or i.p. in different doses 2 days before the provocative test and up to the completion of the test. Compounds were administered as suspension either in carboxymethyl cellulose or in lactose solution. Fluticasone and beclomethasone were used as standard anti-inflammatory substances for comparison.

Structure (SMILES)	IC50 [1] [µM]	inhibition of relative eosinophil number in BAL fluid [2]
CCC1OC(=O)C(C)C(OC2CC(C)(OC)C(O)C(C)O2)C(C)C(OC2OC(C)CC(N(C)CCCNC(=O)C=Cc3cc4c(s3)-c3cc(Cl)ccc3Sc3ccccc3-4)C2O)C(C)(O)CC(C)CN(C)C(C)C(O)C1(C)O (centres unmarked) [Compound 15]	< 10	
CCC1OC(=O)C(C)C(O)C(C)C(OC2OC(C)CC(N(C)C)C2O)C(C)(O)CC(C)CN(CCCNC(=O)C=Cc2cc3c(s2)-c2cc(C)ccc2Sc2ccccc2-3)C(C)C(O)C1(C)O (centres unmarked) [Compound 21]		statistically significant inhibition

Source: US20080096830A1, “Anti-Inflammatory Macrolide Conjugates” (priority 2005, published 2008)
